# Assay results taken from PubChem BioAssay AID2060901 (Molecular Pharmacology Branch, DTP, NCI, 2025).
# Tested on: 422866-222-R5-J1-PDC complex spheroids viability
# Assay: Anticancer human tumor 422866-222-R5-J1-PDC patient-derived pancreatic adenocarcinoma cell line growth inhibition [RAS]
# Conditions: for IC50: curve of first compound; for viability, T/C: stronger effect = lower value
# Method in brief: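 Multi-cell-type spheroids: tumor cells plus HUVEC endothelial cells and mesenchymal stem cells. RAS-pathway inhibitors were combined with targeted agents, each dosed in half-log steps down from clinical Cmax, or from 10 microM when Cmax was unknown.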
# [1] = second compound 0.000949 µM, first compound 0.0316 µM
# [2] = second compound 0.000949 µM, first compound 0.1 µM
# [3] = second compound 0.000949 µM, first compound 0.316 µM
# [4] = second compound 0.000949 µM, first compound 1 µM
# [5] = second compound 0.000949 µM, first compound 3.16 µM
# [6] = second compound 0.000949 µM, first compound 10 µM
# [7] = second compound 0.003 µM, first compound 0.0316 µM
# [8] = second compound 0.003 µM, first compound 0.1 µM
# [9] = second compound 0.003 µM, first compound 0.316 µM
# [10] = second compound 0.003 µM, first compound 1 µM
# [11] = second compound 0.003 µM, first compound 3.16 µM
# [12] = second compound 0.003 µM, first compound 10 µM
# [13] = second compound 0.00949 µM, first compound 0.0316 µM
# [14] = second compound 0.00949 µM, first compound 0.1 µM
# [15] = second compound 0.00949 µM, first compound 0.316 µM
# [16] = second compound 0.00949 µM, first compound 1 µM
# [17] = second compound 0.00949 µM, first compound 3.16 µM
# [18] = second compound 0.00949 µM, first compound 10 µM
# [19] = second compound 0.03 µM, first compound 0.0316 µM
# [20] = second compound 0.03 µM, first compound 0.1 µM
# [21] = second compound 0.03 µM, first compound 0.316 µM
# [22] = second compound 0.03 µM, first compound 1 µM
# [23] = second compound 0.03 µM, first compound 3.16 µM
# [24] = second compound 0.03 µM, first compound 10 µM
# [25] = second compound 0.0949 µM, first compound 0.0316 µM
# [26] = second compound 0.0949 µM, first compound 0.1 µM
# [27] = second compound 0.0949 µM, first compound 0.316 µM
# [28] = second compound 0.0949 µM, first compound 1 µM
# [29] = second compound 0.0949 µM, first compound 3.16 µM
# [30] = second compound 0.0949 µM, first compound 10 µM
# [31] = second compound 0.3 µM, first compound 0.0316 µM
# [32] = second compound 0.3 µM, first compound 0.1 µM
# [33] = second compound 0.3 µM, first compound 0.316 µM
# [34] = second compound 0.3 µM, first compound 1 µM
# [35] = second compound 0.3 µM, first compound 3.16 µM
# [36] = second compound 0.3 µM, first compound 10 µM
# 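Further: spheroids exposed to compounds for 7 days.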
# 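Wherever viability, T/C is given: 100% = DMSO vehicle control viability.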
structure (smiles),measurement,setting,value
Cc1nc(N2CCC3(CC2)COC(C)C3N)c(CO)nc1Sc1ccnc(N)c1Cl (stereo unspecified) + CCn1c(-c2cc(N3CCN(C)CC3)cnc2C(C)OC)c2c3cc(ccc31)-c1csc(n1)CC(NC(=O)C1CC1C)C(=O)N1CCCC(N1)C(=O)OCC(C)(C)C2,IC50,second compound 0.000949 µM,< 31.6 nM
same,IC50,second compound 0.003 µM,< 31.6 nM
same,IC50,second compound 0.00949 µM,< 31.6 nM
same,IC50,second compound 0.03 µM,< 31.6 nM
same,IC50,second compound 0.0949 µM,< 31.6 nM
same,IC50,second compound 0.3 µM,< 31.6 nM
same,"viability, T/C",[1],29.3%
same,"viability, T/C",[2],23.1%
same,"viability, T/C",[3],21.6%
same,"viability, T/C",[4],17.4%
same,"viability, T/C",[5],18.1%
same,"viability, T/C",[6],20.2%
same,"viability, T/C",[7],23.6%
same,"viability, T/C",[8],18.5%
same,"viability, T/C",[9],16.3%
same,"viability, T/C",[10],16.7%
same,"viability, T/C",[11],18.1%
same,"viability, T/C",[12],21.2%
same,"viability, T/C",[13],19.2%
same,"viability, T/C",[14],16.1%
same,"viability, T/C",[15],19.1%
same,"viability, T/C",[16],15.8%
same,"viability, T/C",[17],20.8%
same,"viability, T/C",[18],22.1%
same,"viability, T/C",[19],17.4%
same,"viability, T/C",[20],16.3%
same,"viability, T/C",[21],18.6%
same,"viability, T/C",[22],17.5%
same,"viability, T/C",[23],20.3%
same,"viability, T/C",[24],20.4%
same,"viability, T/C",[25],21%
same,"viability, T/C",[26],20.6%
same,"viability, T/C",[27],20%
same,"viability, T/C",[28],17.8%
same,"viability, T/C",[29],21.7%
same,"viability, T/C",[30],22.3%
same,"viability, T/C",[31],20.1%
same,"viability, T/C",[32],20.2%
same,"viability, T/C",[33],21.2%
same,"viability, T/C",[34],18.1%
same,"viability, T/C",[35],22.7%
same,"viability, T/C",[36],24.4%
NC1c2ccccc2OC12CCN(c1cnc3c(N4CCCc5ncccc54)n[nH]c3n1)CC2 (stereo unspecified) + CCn1c(-c2cc(N3CCN(C)CC3)cnc2C(C)OC)c2c3cc(ccc31)-c1csc(n1)CC(NC(=O)C1CC1C)C(=O)N1CCCC(N1)C(=O)OCC(C)(C)C2,IC50,second compound 0.000949 µM,< 31.6 nM
same,IC50,second compound 0.003 µM,< 31.6 nM
same,IC50,second compound 0.00949 µM,< 31.6 nM
same,IC50,second compound 0.03 µM,< 31.6 nM
same,IC50,second compound 0.0949 µM,< 31.6 nM
same,IC50,second compound 0.3 µM,< 31.6 nM
same,"viability, T/C",[1],20.1%
same,"viability, T/C",[2],18.4%
same,"viability, T/C",[3],14.1%
same,"viability, T/C",[4],16.4%
same,"viability, T/C",[5],18.4%
same,"viability, T/C",[6],18.5%
same,"viability, T/C",[7],19.2%
same,"viability, T/C",[8],15.6%
same,"viability, T/C",[9],14.8%
same,"viability, T/C",[10],16.3%
same,"viability, T/C",[11],17.4%
same,"viability, T/C",[12],19.8%
same,"viability, T/C",[13],16.1%
same,"viability, T/C",[14],15.2%
same,"viability, T/C",[15],14.6%
same,"viability, T/C",[16],14.7%
same,"viability, T/C",[17],18.5%
same,"viability, T/C",[18],16.5%
same,"viability, T/C",[19],17.2%
same,"viability, T/C",[20],16.4%
same,"viability, T/C",[21],16.7%
same,"viability, T/C",[22],16.8%
same,"viability, T/C",[23],18.2%
same,"viability, T/C",[24],17.9%
same,"viability, T/C",[25],17.5%
same,"viability, T/C",[26],18.4%
same,"viability, T/C",[27],16.9%
same,"viability, T/C",[28],19.2%
same,"viability, T/C",[29],18.5%
same,"viability, T/C",[30],18.9%
same,"viability, T/C",[31],18.6%
same,"viability, T/C",[32],19%
same,"viability, T/C",[33],20.5%
same,"viability, T/C",[34],19.2%
same,"viability, T/C",[35],19.8%
same,"viability, T/C",[36],22.7%
Nc1ccn(C2OC(CO)C(O)C2(F)F)c(=O)n1 (stereo unspecified) + CCn1c(-c2cc(N3CCN(C)CC3)cnc2C(C)OC)c2c3cc(ccc31)-c1csc(n1)CC(NC(=O)C1CC1C)C(=O)N1CCCC(N1)C(=O)OCC(C)(C)C2,IC50,second compound 0.000949 µM,< 3.16 nM
same,IC50,second compound 0.003 µM,< 3.16 nM
same,IC50,second compound 0.00949 µM,< 3.16 nM
same,IC50,second compound 0.03 µM,< 3.16 nM
same,IC50,second compound 0.0949 µM,< 3.16 nM
same,IC50,second compound 0.3 µM,< 3.16 nM
same,"viability, T/C","second compound 0.000949 µM, first compound 0.00316 µM",30.8%
same,"viability, T/C","second compound 0.000949 µM, first compound 0.01 µM",27.9%
same,"viability, T/C",[1],25.3%
same,"viability, T/C",[2],24.1%
same,"viability, T/C",[3],22.2%
same,"viability, T/C",[4],19.4%
same,"viability, T/C","second compound 0.003 µM, first compound 0.00316 µM",25.6%
same,"viability, T/C","second compound 0.003 µM, first compound 0.01 µM",23.5%
same,"viability, T/C",[7],20.5%
same,"viability, T/C",[8],16.5%
same,"viability, T/C",[9],18.6%
same,"viability, T/C",[10],17.4%
same,"viability, T/C","second compound 0.00949 µM, first compound 0.00316 µM",20.4%
same,"viability, T/C","second compound 0.00949 µM, first compound 0.01 µM",21.1%
same,"viability, T/C",[13],20.4%
same,"viability, T/C",[14],16.3%
same,"viability, T/C",[15],15.2%
same,"viability, T/C",[16],15.8%
same,"viability, T/C","second compound 0.03 µM, first compound 0.00316 µM",18.9%
same,"viability, T/C","second compound 0.03 µM, first compound 0.01 µM",20.1%
same,"viability, T/C",[19],17.4%
same,"viability, T/C",[20],16.1%
same,"viability, T/C",[21],15.8%
same,"viability, T/C",[22],14.7%
same,"viability, T/C","second compound 0.0949 µM, first compound 0.00316 µM",19.3%
same,"viability, T/C","second compound 0.0949 µM, first compound 0.01 µM",20.8%
same,"viability, T/C",[25],16.7%
same,"viability, T/C",[26],15.6%
same,"viability, T/C",[27],16.6%
same,"viability, T/C",[28],16.4%
same,"viability, T/C","second compound 0.3 µM, first compound 0.00316 µM",20%
same,"viability, T/C","second compound 0.3 µM, first compound 0.01 µM",20.4%
same,"viability, T/C",[31],18.5%
same,"viability, T/C",[32],18.7%
same,"viability, T/C",[33],18.9%
same,"viability, T/C",[34],15.4%
